Square brackets hold non-standard residues; d marks the D form. Peptide text beside a SMILES is read from it. * marks the point of attachment. 5FAM = O=C1OC2(c3ccc(O)cc3Oc3cc(O)ccc32)c2ccc(C(=O)*)cc21
Legend:
Aβ1–42 fibrils [1] = target: T1, Aβ1–42 fibrils (Homo sapiens, UniProt P05067); test: SPR single cycle experiments (Biacore T100), heterogeneous ligand model; format: binding; parameters: Rmax1 / Rmax2 / k off2: unit not given here; settings: PBS pH 7.4, 25°C, 30 µl/min
T1 construct: Aβ1–42 was dissolved in hexafluoroisopropanol (HFIP)
Method: Aβ1–42 fibrils were prepared as described above. Thereafter, the sample was centrifuged for 10 min at 16000×g, the supernatant discarded and this procedure repeated for 3 times. Formation of fibrils was confirmed by a standard Thioflavin-T fluorescence assay. Aβ1–42 fibrils were covalently immobilized on a CM5 sensor chip via amine coupling. Prior to immobilization of Aβ1–42 fibrils the sample was centrifuged and fibrils resuspended in 10 mM sodium acetate buffer pH 4.0. Flow cell sensor surfaces were activated with a freshly prepared solution of 0.2 M 1-ethyl–3-(3-dimethylaminopropyl)-carbodiimide (EDC) and 0.05 M N-hydroxysuccinimide (NHS) at a constant flow rate of 10 µl/min for 420 s. Aβ1–42 fibrils (∼ 110 µM monomeric Aβ1–42) were injected for 600 s with a flow rate of 10 µl/min. Deactivation of the surface was performed by injection of 1 M ethanolamine-HCl pH 8.5 at the same flow rate and duration as in the activation step. In the reference cells the deactivation step was performed directly after the activation step. All SPR experiments were performed on a Biacore T100 system with series S CM5 sensor chips at 25°C. The system was run with the Biacore T100 Control Software Version 1.1.1. PBS (10 mM sodium phosphate buffer pH 7.4, 137 mM NaCl, 2.7 mM KCl) was chosen as running buffer (as previously during fibril formation) in order to minimize alterations of fibril organization. All buffers were sterile filtered (0.22 µm). After each docking of a sensor chip the detector was normalized with BIAnormalizing solution (70% glycerol, GE Healthcare) to compensate for slight differences in detector responses of individual sensor chips. For all interaction analyses the Type 1 reagent rack was used. Siliconized sample vials were used with their corresponding rubber caps (Type 2, GE Healthcare) to minimize evaporation effects. Throughout all runs the flow rate was set to 30 µl/min. All interaction studies were performed in single-cycle mode. Here, five different concentrations of analyte were passed through a reference cell and subsequently through flow cells with immobilized ligand within the same binding cycle for 60 seconds, starting with the lowest concentration. Successive injections were performed in the order of increasing concentrations. Each following concentration was a fivefold increase of the previous. The lowest analyte concentration was chosen to be 100 nM and therefore the following were 500, 2500, 12500 and 62500 nM. Biacore data were evaluated using BiaEvaluation 4.1.1 (GE Healthcare) and Biacore T100 Evaluation Software (GE Healthcare). Obtained binding data with compounds were double referenced. This was achieved by collecting the data in dual-channel mode with a reference flow cell connected upstream of the flow cell with immobilized Aβ1–42 fibrils and the subtraction of the obtained binding responses with a blank buffer injection (PBS).

Aβ1–42 fibrils [2] = target: T1, Aβ1–42 fibrils; test: ELISA, compound binding to Aβ1–42 fibrils; settings: for binding value, binding Aβ1–42 fibrils: optical density after pNPP incubation
Method: (§1) Aβ1–42 peptide film was prepared from lyophilized powder (Bachem). The powder was reconstituted in HFIP to a final concentration of 1 mM, sonicated for 15 min at room temperature (RT), agitated overnight (ON), and aliquoted into non-siliconized microcentrifuge tubes (12 µl corresponding to 55 µg). The HFIP was evaporated under a stream of argon. The resulting peptide film was vacuum dried for 10 min and stored at -80°C. For direct use as peptide film, an aliquot of Aβ1–42 peptide film was reconstituted with 0.54% dimethylsulphoxide (DMSO) in phosphate buffered saline (PBS) to obtain a final concentration of 10 µg/ml and then used for the ELISA as described below. To prepare fibrils, 55 µg aliquot of peptide film was dissolved in 55 µl of 50 mM Tris-HCl, pH 7.4 and incubated at 37°C for five days. Next, the sample was centrifuged (10’000 rpm for 5 min) and the pellet was diluted in 50 mM Tris-HCl, pH 7.4.
(§2) Aβ1–42 peptide preparations were diluted in 0.05 M bicarbonate-carbonate buffer pH 9.6, to the final concentration of 10 µg/ml and coated onto ELISA plates (MaxiSorp, Nunc). After blocking (PBS; 0.05% Tween; 1% BSA), plates were incubated with 2- or 3-fold dilutions of D-compounds (starting concentration: 10 µg/ml) and incubated for 2 h at 37°C. Plates were then washed and incubated for 2 h at 37°C with the detection antibody Rabbit-a-fluorescein isothiocyanate-AP (Sigma; 1∶10’000 dilution) followed by the incubation for 2.5 h at room temperature (RT) with 1 mg/ml of phosphatase substrate (pNPP, Sigma). The absorbance signal was read at 405 nm wavelength using a Tecan plate reader (Tecan Group Lt, Männedorf, Switzerland).
(§3) ELISA plates (MaxiSorp, Nunc) were coated with anti-Aβ antibody 6E10 (Covance) at a concentration of 5 µg/ml. Either monomeric Aβ1–42 peptide film (mainly monomeric) or Aβ1–42 fibrils, which were prepared as described above, were diluted in PBS to the final concentration 10 µg/ml and mixed with 10-fold dilutions of D-peptide compounds in Eppendorf tubes (starting concentration of D-peptide compounds: 10 µg/ml). The tubes were incubated for 2 h at 37°C. Next, samples were distributed onto the ELISA plate and kept for 2 h at 37°C. Plates were washed and incubated for 2 h at 37°C with the detection antibody Rabbit-a-fluorescein isothiocyanate-AP (Sigma; 1∶10′000 dilution) following the incubation overnight (ON) at RT with 1 mg/ml of phosphatase substrate (pNPP, Sigma). The absorbance signal was read at 405 nm wavelength using the Tecan plate reader (Tecan Group Ltd, Männedorf, Switzerland).
(§4) To verify the SPR results, ELISA was employed to assay the interaction of the ACI-80 derivatives ACI-80-Kϕ, ACI-81-Kϕ, ACI-82-Kϕ, ACI-83-Kϕ, ACI-84-Kϕ, ACI-85-Kϕ, ACI-86-Kϕ, ACI-87-Kϕ, [^19F]-ACI-87-Kϕ, ACI-88-Kϕ, [^19F]-ACI-88-Kϕ, ACI-89-Kϕ, [^19F]-ACI-89-Kϕ) with Aβ1–42 fibrils and Aβ peptide film in solution containing mostly monomers and smaller oligomers (Table 4). To avoid any bias by possible conformational influences the ELISA has been carried out in two versions, once with immobilized antibody and once with immobilized Aβ1–42 as described in the methods section. Both assays yielded similar results and confirmed each other. […] Panels A and B in Figure 2 show the results for binding to Aβ1–42 fibrils and panels C and D in Figure 2 show the results for binding to freshly prepared Aβ1–42 peptide film, which contains mostly monomeric Aβ. In Table 4, the performance of the peptides is expressed relative to that of ACI-80-Kϕ.

Aβ1–42 monomers = target: T2, Aβ1–42 monomers (Homo sapiens, UniProt P05067); test: ELISA, compound binding to Aβ1–42 peptide film (predominantly monomers); settings: 10 µg/ml compound; for binding value, binding Aβ1–42 monomers: optical density after pNPP incubation
T2 construct: Aβ1–42 peptide film was prepared from lyophilized powder (Bachem); purchased Bachem
Method: as §1, §2, §3, §4

[3] = Analysis of ACI-80 stability: N-terminal glutamine vs pyroglutamate content by HPLC/ESI-MS; format: physicochemical; settings: solid, freshly synthesized and untreated, HPLC/ESI-MS
Method: In solution, N-terminal glutamine peptides such as D1 are prone to convert into N-terminal pyroglutamate species: Gln-SHYRHISPAQV → Pyr-SHYRHISPAQV. Therefore, the stability of solid ACI-80, solid ACI-80-Kϕ (ϕ: fluorescein isothiocyanate, covalently linked to the peptide via a lysine (K)) and [^127I]-ACI-80 in solution was investigated by JPT Peptide Technologies GmbH, Berlin, Germany using HPLC/ESI-MS whereby the relative content of N-terminal Gln peptide and N-terminal Pyr peptide was assessed.
An important observation during initial compound stability characterization experiments was the partial conversion of the N-terminal glutamine of [^127I]-ACI-80 into pyro-glutamate. It is known that peptides with an N-terminal glutamine are prone to conversion of this residue into a pyroglutamate. Therefore, the composition of freshly synthesized and untreated ACI-80 and ACI-80-Kϕ as well as [^127I]-ACI-80 after iodination were investigated. […] It was observed that freshly synthesized ACI-80 and ACI-80-Kϕ contained only minor fractions of pyroglutamic acid while about one third of [^127I]-ACI-80 in solution already converted into N-terminal pyroglutamate species.

[4] = target: T3, Aβ plaques in brain sections of transgenic APP (V717I) x PS1 (A246E) mice (Homo sapiens, UniProt P05067); test: Ex vivo staining of mouse brain slices by FITC labeled compounds
T3 construct: triple image overlay of respective stains reveal that the ϕ-compounds identify plaques; from tissue; host or cells: brain cryosections of APP (V717I) x PS1 (A246E) transgenic mice
Method: In vitro tissue section staining was performed according to previously described protocols with slight modifications. Mouse brains were obtained from male transgenic (tg) APP (London mutation V717l) x PS1 (A246E) mice aged 13–21 months and from female wild type (wt) mice aged 9–10 months. The mice were anesthetized and transcardially perfused with saline. The brains were removed and snap frozen. 10 µm thick sagittal cryostat sections through the whole mouse brain were produced and mounted onto glass slides. ϕ-labeled compounds were applied to investigate binding. Thus, the slides were thawed, washed in PBS and fixed in 4% paraformaldehyde (20 min at RT) just before incubation with ϕ-labeled compounds. One series of sections was treated only with fluorescent compounds (0.01 mg/ml, incubation time 2 h) while another series of sections were incubated with anti-Aβ antibody 6E10 at 1∶500 dilution (SIG-39320, Covance; final antibody concentration was 2 µg/ml) in addition to ϕ-labeled compounds (0.01 mg/ml). The slices were washed in PBS. The sections incubated with ϕ-labeled compound and 6E10 antibody were further incubated for 2 h at RT with Goat-anti-Mouse IgG1– AlexaFluor 555 (A21127, Invitrogen, 1∶1000 dilution) and washed with PBS. Finally, all sections were counterstained with 4’–6-Diamidino-2-phenylindole (DAPI, 32670, Sigma, incubation 5 min at RT) for the visualization of cell nuclei. The slides were mounted using Prolong Gold Antifade mounting medium (P36930, Invitrogen) and coverslipped.
The tissues were analyzed using a fluorescent Zeiss Axioscope 2 Plus microscope using the AxioVision 4 image analysis software.
A further series of slices was stained using a primary anti-fluorescein isothiocyanate antibody combined with alkaline phosphatase reaction for visualization of ϕ-labeled peptides. Briefly, the sections were treated with blocking solution (10% normal goat serum (NGS), 0.25% Triton X-100 in PBS for 1 h at RT) and incubated with primary antibody (rabbit-anti-FITC; Invitrogen) at a dilution of 1∶500. The sections were then washed and incubated for 2 h at RT with the secondary antibody goat-anti-rabbit-alkaline phosphatase (Sigma) at a dilution of 1∶100. After washing, the slides were incubated with BCIP/NBT substrate (Sigma) for 3 min, washed, dehydrated and mounted using Eukitt mounting medium.

[5] = 10 µg/ml compound, average of two or three experiments
[6] = average of two or three experiments

| Compound | Rmax2 (Aβ1–42 fibrils [1]) | k off1 (Aβ1–42 fibrils [1]) | k off2 (Aβ1–42 fibrils [1]) | k on1 (Aβ1–42 fibrils [1]) | k on2 (Aβ1–42 fibrils [1]) | Rmax1 (Aβ1–42 fibrils [1]; global fit of three lowest responding concentrations) | binding value, binding Aβ1–42 fibrils (Aβ1–42 fibrils [2]; [5]) | binding value, binding Aβ1–42 monomers (Aβ1–42 monomers; [6]) | Identified amino acid at the N-terminal position: glutamine ([3]; relative content of N-terminal Gln peptide) [%] | Identified amino acid at the N-terminal position: pyroglutamate ([3]; relative content of N-terminal Pyr peptide) [%] | ELISA binding to Aβ1–42 (Aβ1–42 fibrils [2]) | binding value, binding Aβ1–42 fibrils (Aβ1–42 fibrils [2]; 10 µg/ml compound, value of one single experiment only) | staining / recognition of Aβ plaques ([4]; 0.01 mg/ml ϕ-labeled compound, 2 h, 10 µm cryostat sections, fluorescence microscopy) | overlay with 6E10 anti-Aβ staining ([4]; co-staining with 6E10 (2 µg/ml) and DAPI, triple overlay) | staining pattern ([4]; fluorescence microscopy) | binding value, binding Aβ1–42 monomers (Aβ1–42 monomers; value of one single experiment only) | % binding relative to ACI-80-Kϕ, Aβ1–42 fibrils (Aβ1–42 fibrils [2]; 10 µg/ml compound, ACI-80-Kϕ = 100) [%] | % binding relative to ACI-80-Kϕ, Aβ1–42 monomers (Aβ1–42 monomers; ACI-80-Kϕ = 100) [%] |
| --- | --- | --- | --- | --- | --- | --- | --- | --- | --- | --- | --- | --- | --- | --- | --- | --- | --- | --- |
| CC[C@@H](C)[C@@H](NC(=O)[C@@H](Cc1c[nH]cn1)NC(=O)[C@@H](CCCNC(=N)N)NC(=O)[C@@H](Cc1ccc(O)cc1)NC(=O)[C@@H](Cc1c[nH]cn1)NC(=O)[C@@H](CO)NC(=O)[C@H](N)CCC(N)=O)C(=O)N[C@H](CO)C(=O)N1CCC[C@@H]1C(=O)N[C@H](C)C(=O)N[C@H](CCC(N)=O)C(=O)N[C@@H](C(=O)N[C@H](CCCCNC(=O)c1ccc2c(c1)C(=O)OC21c2ccc(O)cc2Oc2cc(O)ccc21)C(=O)O)C(C)C [ACI-80-Kϕ] (H-[dQ][dS][dH][dY][dR][dH][dI][dS][dP][dA][dQ][dV][dK](5FAM)-OH; C-terminus assumed) | 43.7 | 0.0252 | 1.58 | 469 | 1.37e4 | 12.2 | 0.90 | 0.49 | >94.4 | <5.6 |  |  |  |  |  |  |  |  |
| PSHYRHISPAQKK[^19F]ϕ [[^19F]-ACI-89-Kϕ, fluorinated ϕ-labeled ACI-89] |  |  |  |  |  |  |  |  |  |  | bound well to Aβ1–42 fibrils | *1.86 | readily recognized amyloid plaques | good overlap with 6E10 Aβ staining | more diffuse and comparable to the staining of 6E10 Aβ antibody | *1.19 |  |  |
| ZSFYRHISPAQVKϕ [ACI-84-Kϕ, ϕ-labeled ACI-80 derivative, Q1Z and H3F] |  |  |  |  |  |  | 0.58 | 0.31 |  |  | reduced |  |  |  |  |  | 64 | 63 |
